The values below come from ChEMBL document CHEMBL2073996, “Increased bioavailability of the food-derived carcinogen 2-amino-1-methyl-6-phenylimidazo[4,5-b]pyridine in MRP2-deficient rats” (Mol Pharmacol, 2001).

The data set has as its target ATP-binding cassette sub-family C member 2 (Homo sapiens, UniProt Q92887). Nature of the data set: TP_TRANSPORTER: transepithelial transport (basal to apical) in MRP2-expressing MDCKII cells. Conditions: dog, mdck-ii. It counts as functional, cell-based.

Chain of ATP-binding cassette sub-family C member 2 (Q92887 whole entry): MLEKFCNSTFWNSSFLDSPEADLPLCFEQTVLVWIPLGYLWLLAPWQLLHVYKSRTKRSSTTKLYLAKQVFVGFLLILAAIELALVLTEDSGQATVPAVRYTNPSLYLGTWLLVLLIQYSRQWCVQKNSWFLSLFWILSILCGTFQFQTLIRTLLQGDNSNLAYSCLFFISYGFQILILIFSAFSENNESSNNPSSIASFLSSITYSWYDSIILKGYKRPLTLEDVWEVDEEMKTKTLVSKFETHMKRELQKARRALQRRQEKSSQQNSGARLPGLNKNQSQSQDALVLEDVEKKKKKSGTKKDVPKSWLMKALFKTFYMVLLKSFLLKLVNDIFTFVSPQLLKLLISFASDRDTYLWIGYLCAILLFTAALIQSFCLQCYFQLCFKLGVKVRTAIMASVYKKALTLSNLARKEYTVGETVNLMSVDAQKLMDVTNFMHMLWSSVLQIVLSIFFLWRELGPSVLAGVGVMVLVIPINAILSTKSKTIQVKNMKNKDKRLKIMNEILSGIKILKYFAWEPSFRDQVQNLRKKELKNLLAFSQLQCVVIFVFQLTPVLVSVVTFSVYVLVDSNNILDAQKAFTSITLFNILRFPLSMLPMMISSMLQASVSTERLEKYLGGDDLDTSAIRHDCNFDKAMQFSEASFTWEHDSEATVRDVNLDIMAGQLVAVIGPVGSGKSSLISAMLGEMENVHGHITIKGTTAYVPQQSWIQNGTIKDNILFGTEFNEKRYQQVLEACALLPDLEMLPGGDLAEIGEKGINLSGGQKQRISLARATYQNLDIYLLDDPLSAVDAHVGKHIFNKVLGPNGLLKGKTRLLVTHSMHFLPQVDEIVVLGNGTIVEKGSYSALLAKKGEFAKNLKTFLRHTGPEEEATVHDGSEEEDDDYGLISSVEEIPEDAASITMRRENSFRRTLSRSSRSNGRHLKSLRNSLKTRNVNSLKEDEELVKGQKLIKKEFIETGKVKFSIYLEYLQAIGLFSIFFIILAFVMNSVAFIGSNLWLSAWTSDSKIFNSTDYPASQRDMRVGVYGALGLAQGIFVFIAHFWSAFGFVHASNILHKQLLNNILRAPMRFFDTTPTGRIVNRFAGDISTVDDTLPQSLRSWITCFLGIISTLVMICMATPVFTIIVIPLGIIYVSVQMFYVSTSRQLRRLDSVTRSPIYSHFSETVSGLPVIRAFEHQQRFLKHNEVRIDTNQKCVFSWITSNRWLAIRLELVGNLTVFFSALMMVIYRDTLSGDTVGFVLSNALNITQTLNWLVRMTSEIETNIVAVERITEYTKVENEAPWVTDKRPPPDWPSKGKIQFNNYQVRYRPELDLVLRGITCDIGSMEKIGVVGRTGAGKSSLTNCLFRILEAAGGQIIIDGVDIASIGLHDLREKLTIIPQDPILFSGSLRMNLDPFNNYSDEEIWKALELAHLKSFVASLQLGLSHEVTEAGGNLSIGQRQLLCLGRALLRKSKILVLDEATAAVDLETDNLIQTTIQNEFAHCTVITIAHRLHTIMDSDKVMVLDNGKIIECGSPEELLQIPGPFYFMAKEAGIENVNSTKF

With `Cn1c(N)nc2ncc(-c3ccccc3)cc21` [2-AMINO-1-METHYL-6- PHENYLIMIDAZO[4,5- B]PYRIDINE], the Activity result is “substrate [+]”.
